Read-outs that look alike come from different tables or passages of the source.
Legend:
[1] = system: Cylindrotheca fusiformis; assay: Antibiotic sensitivity of diatoms on solid media; assay type: cell-based; conditions: for lowest concentration of antibiotic per ml required for cell death or the lowest concentration tested: reduced salinity
Experimental: (§1) The diatoms Phaeodactylum tricornutum, Cylindrotheca fusiformis, Cyclotella cryptica and Nitzschia alba were extensively tested for sensitivity to a series of antibiotics for which resistance genes are available, and the lowest concentrations which completely abrogate growth were determined for each antibiotic (Table C). […] These include antibiotics such as G418, Hygromycin, Kanamycin and Spectinomycin, which are routinely utilized for selection of other eukaryotic organisms.
(§2) The effective concentration range of the antibiotic in most cases was lowered by a factor of 10.
(§3) Cells of each diatom species were plated on solid media at salinity equivalents of 25-100% I.O. media, with a gradient of antibiotic concentrations. After 2 weeks of illumination the growth of the cells was assessed and the concentration of antibiotic required for cell death was determined. (Table D). Table C. Effect of antibiotics on the growth of selected diatoms. Values represent the lowest concentration of the antibiotic per ml required for cell death or the highest concentration tested.
(§4) Table D. Effect of antibiotics on the growth of selected diatoms in media with reduced salinity. The relative percentage of salinity verses normal seawater of the medium is given in parentheses. Antibiotic levels are given as the lowest concentration of antibiotic per ml required for cell death or the lowest concentration tested.

[2] = system: Phaeodactylum tricornutum; assay: Antibiotic sensitivity of diatoms on solid media; assay type: cell-based; conditions: for lowest concentration of antibiotic per ml required for cell death or the lowest concentration tested: reduced salinity
Experimental: as §1, §2, §3, §4

[3] = system: Nitzschia alba; assay: Antibiotic sensitivity of diatoms on solid media; assay type: cell-based
Experimental: as §1, §3

[4] = system: Cyclotella cryptica; assay: Antibiotic sensitivity of diatoms on solid media; assay type: cell-based; conditions: for lowest concentration of antibiotic per ml required for cell death or the lowest concentration tested: reduced salinity, 10% of normal seawater
Experimental: as §1, §2, §3, §4

[5] = system: human Glut1 glucose transporter (Glut1, from human erythrocytes), expressed in P. tricornutum transformants Glut-13 and Glut-17; assay: Glucose uptake kinetics (D-14C-glucose) of glut1 containing P. tricornutum transformants; assay type: cell-based, Phaeodactylum tricornutum; conditions: cell line Glut-13; 5x10^-4 of Cytochalasin B (unit not given)
[6] = C. fusiformis, solid media, 100% I.O. media, 2 weeks of illumination
[7] = P. tricornutum, solid media, 100% I.O. media, 2 weeks of illumination
[8] = N. alba, solid media, 100% I.O. media, 2 weeks of illumination
[9] = C. cryptica, solid media, 100% I.O. media, 2 weeks of illumination
[10] = C. fusiformis, 25% of normal seawater
[11] = C. fusiformis, 50% of normal seawater
[12] = P. tricornutum, 50% of normal seawater
[13] = P. tricornutum, 25% of normal seawater

Row | Compound | lowest concentration of the antibiotic per ml required for cell death or the highest concentration tested [1, 6] [mg mg per ml] | lowest concentration of the antibiotic per ml required for cell death or the highest concentration tested [2, 7] [mg mg per ml] | lowest concentration of the antibiotic per ml required for cell death or the highest concentration tested [3] [mg] | lowest concentration of the antibiotic per ml required for cell death or the highest concentration tested [4] [mg] | lowest concentration of the antibiotic per ml required for cell death or the highest concentration tested [1] [mg] | lowest concentration of the antibiotic per ml required for cell death or the highest concentration tested [2] [mg] | lowest concentration of the antibiotic per ml required for cell death or the highest concentration tested [3, 8] [mg mg per ml] | lowest concentration of antibiotic per ml required for cell death or the lowest concentration tested ([4]; C. cryptica) | lowest concentration of the antibiotic per ml required for cell death or the highest concentration tested [4, 9] [mg mg per ml] | lowest concentration of antibiotic per ml required for cell death or the lowest concentration tested [1, 10] | lowest concentration of antibiotic per ml required for cell death or the lowest concentration tested [1, 11] | lowest concentration of antibiotic per ml required for cell death or the lowest concentration tested [2, 12] | glucose uptake in the presence of Cytochalasin B [5] | lowest concentration of antibiotic per ml required for cell death or the lowest concentration tested [2, 13]
1 | Bleomycin | > 50 | > 50 |  |  |  |  |  |  |  |  |  |  |  | 
2 | CN[C@@H]1C[C@H](N)[C@@H](O)[C@H](O[C@H]2O[C@H](CO)[C@H](O)[C@@H]3O[C@@]4(O[C@@H]23)O[C@H]([C@H](N)CO)[C@H](O)[C@H](O)[C@H]4O)[C@H]1O [Hygromycin] |  |  | > 500 | > 500 | 500 | > 1 |  |  |  |  |  |  |  | 
3 | Cc1c(N)nc([C@H](CC(N)=O)NC[C@H](N)C(N)=O)nc1C(=O)N[C@H](C(=O)N[C@H](C)[C@@H](O)[C@H](C)C(=O)N[C@H](C(=O)NCCC1=N[C@@H](c2nc(C(=O)NCCCCN=C(N)N)cs2)CS1)[C@@H](C)O)[C@@H](O[C@@H]1O[C@@H](CO)[C@@H](O)[C@H](O)[C@@H]1O[C@H]1O[C@H](CO)[C@@H](O)[C@H](OC(N)=O)[C@@H]1O)c1cnc[nH]1 [Zeocin] | > 250 | 50 |  |  |  |  | > 250 | < 5 mg (10%) mg per ml | 250 | 100 mg (25%) mg per ml | 250 mg (50%) mg per ml | 25 mg (50%) mg per ml |  | 
4 | CN[C@@H]1[C@@H](O)[C@@H](O[C@@H]2[C@@H](O)[C@H](O[C@H]3O[C@H]([C@@H](C)O)[C@@H](O)[C@H](O)[C@H]3N)[C@@H](N)C[C@H]2N)OC[C@]1(C)O [G418] | > 1 | > 1 |  |  |  |  | > 500 |  | 250 |  |  |  |  | 
5 | Neomycin | > 1 | > 1 |  |  |  |  | > 1 |  | > 1 |  |  |  |  | 
6 | C=C1C(C)C2C(Cc3ccccc3)NC(=O)C23OC(=O)C=CC(O)CCCC(C)CC=CC3C1O (centres unmarked) [Cytochalasin B] |  |  |  |  |  |  |  |  |  |  |  |  | reduced to an undetectable level | 
7 | Phleomycin | 25 | 5 |  |  |  |  | > 50 | < 5 mg (10%) mg per ml | 25 | < 5 mg (25%) mg per ml | 25 mg (50%) mg per ml | < 5 mg (50%) mg per ml |  | < 5 mg (25%) mg per ml
8 | Nourseothricin | > 250 | 250 |  |  |  |  | > 250 | < 5 mg (10%) mg per ml | >250 | < 10 mg (25%) mg per ml | 50 mg (50%) mg per ml | 25 mg (50%) mg per ml |  | 10 mg (25%) mg per ml

— patent publication EP1780283A1, “Trophic conversion of obligate photographic algae through metabolic engineering” (MARTEK BIOSCIENCES CORPORATION, priority 2000, dated 2001)
